The values that follow come from patent US12527774B2, “Estrogen-related receptor alpha modulators” (LEAD PHARMA HOLDING B.V., priority 2019, dated 2026).

Sequence of ERRα ligand binding domain (ERRα-LBD) (P11474 193-421): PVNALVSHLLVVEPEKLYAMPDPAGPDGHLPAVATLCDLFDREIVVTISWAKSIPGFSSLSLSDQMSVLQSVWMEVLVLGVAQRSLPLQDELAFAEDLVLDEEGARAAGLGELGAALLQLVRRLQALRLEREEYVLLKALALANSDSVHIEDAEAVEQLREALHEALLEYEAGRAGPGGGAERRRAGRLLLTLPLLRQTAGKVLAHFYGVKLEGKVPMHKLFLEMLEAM

The first experiment concerns the target ERRα ligand binding domain (ERRα-LBD) (Homo sapiens (Human), UniProt P11474). The experiment can be described thus: ERRα AlphaScreen Assay. The format is biochemical. The note with it: disruption of binding of ERRα-LBD protein to biotin-PGC1α-3 co-activator peptide. A digest of the protocol:
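His-SUMO-tagged ERRα-LBD from E. coli (0.81 nM) preincubated 1 h at room temperature with compound, streptavidin donor and Ni-chelate acceptor beads (10 μg/mL each), then 2 h with 15 nM biotin-PGC1α-3 peptide (aa 202–220). Buffer: 50 mM Tris-HCl pH 7.5, 100 mM NaCl, 5 mM TCEP, 1% DMSO. Four-parameter IC50; mean pIC50 of replicate values.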
Consider `COc1cc(C2CC(=O)Nc3[nH]nnc32)ccc1OCc1ccccc1C(F)(F)F` (stereo not shown) [Example 90, 7-(3-methoxy-4-{[2-(trifluoromethyl)phenyl]methoxy}phenyl)-3H,4H,5H,6H, 7H-[1,2,3]triazolo[4,5-b]pyridin-5-one], for which the “mean pIC50” value is at least 8.
In the case of `COc1cc(C2CC(=O)Nc3n[nH]cc32)ccc1OCc1ccc(N)cc1C(F)(F)F` (stereo not shown) [Example 135, 4-(4-{[4-amino-2-(trifluoromethyl)phenyl]methoxy}-3-methoxyphenyl)-2H,4H,5H,6H, 7H-pyrazolo[3,4-b]pyridin-6-one], the “mean pIC50” value is at least 8.
Still for that read-out and setting: the value for `COc1cc(C2CC(=O)Nc3n[nH]nc32)ccc1OCc1ccc(N)cc1C(F)(F)F` (stereo not shown) [Example 136, 7-(4-{[4-amino-2-(trifluoromethyl)phenyl]methoxy}-3-methoxyphenyl)-2H,4H,5H,6H, 7H-[1,2,3]triazolo[4,5-b]pyridin-5-one] was at least 8; that for `COc1cc(C2CC(=O)Nc3n[nH]cc32)ccc1OCc1ccc(N(C)C)cc1C(F)(F)F` (stereo not shown) [Example 138, 4-(4-{[4-(dimethylamino)-2-(trifluoromethyl)phenyl]methoxy}-3-methoxyphenyl)-2H,4H,5H,6H, 7H-pyrazolo[3,4-b]pyridin-6-one] was at least 8.

The same experiment, now with this note: disruption of binding of ERRα-LBD protein to biotin-PGC1α-3 co-activator peptide; read-out: mean pIC50 (converted).
In the case of `COc1cc(C2CC(=O)N(C)c3n[nH]cc32)ccc1OCc1ccccc1C(F)(F)F` (stereo not shown) [Example 86, 4-(3-methoxy-4-{[2-(trifluoromethyl)phenyl]methoxy}phenyl)-7-methyl-2H,4H,5H,6H,7H-pyrazolo[3,4-b]pyridin-6-one], the IC50 was 100 to 1000 nM.
Still for that read-out and setting: next, `COc1cc(C2CC(=O)Nc3c[nH]nc32)ccc1OCc1ccccc1C(F)(F)F` (stereo not shown) [Example 87, 7-(3-methoxy-4-{[2-(trifluoromethyl)phenyl]methoxy}phenyl)-2H,4H,5H,6H, 7H-pyrazolo[4,3-b]pyridin-5-one]: 10 to 100 nM.
For the compound `COc1cc(C2CC(=O)Nc3ncsc32)ccc1OCc1ccccc1C(F)(F)F` (stereo not shown) [Example 88, 7-(3-methoxy-4-{[2-(trifluoromethyl)phenyl]methoxy}phenyl)-4H,5H,6H,7H-[1,3]thiazolo[4,5-b]pyridin-5-one], the IC50 is 100 to 1000 nM.
Still for that read-out and setting: the value for `COc1ccc(COc2ccc(C3CC(=O)Nc4c[nH]nc43)cc2OC)c(C(F)(F)F)c1` (stereo not shown) [Example 92, 7-(3-methoxy-4-{[4-methoxy-2-(trifluoromethyl)phenyl]methoxy}phenyl)-2H,4H,5H,6H,7H-pyrazolo[4,3-b]pyridin-5-one] was 10 to 100 nM.
Still for that read-out and setting: next, `COc1cc(C2CC(=O)Nc3c[nH]nc32)ccc1OCc1ccc(C(C)=O)cc1C(F)(F)F` (stereo not shown) [Example 94, 7-(4-{[4-acetyl-2-(trifluoromethyl)phenyl]methoxy}-3-methoxyphenyl)-2H,4H,5H,6H, 7H-pyrazolo[4,3-b]pyridin-5-one]: 100 to 1000 nM; `COc1cc(C2CC(=O)Nc3n[nH]c(F)c32)ccc1OCc1ccccc1C(F)(F)F` (stereo not shown) [Example 95, 3-fluoro-4-(3-methoxy-4-{[2-(trifluoromethyl)phenyl]methoxy}phenyl)-2H,4H,5H,6H, 7H-pyrazolo[3,4-b]pyridin-6-one]: 100 to 1000 nM.
The same measure, in the same setting: the value for `COc1cc(C2CC(=O)Nc3n[nH]cc32)ccc1OCc1ccc(C#N)cc1C(F)(F)F` (stereo not shown) [Example 105, 4-[(2-methoxy-4-{6-oxo-2H,4H,55H, 6H, 7H-pyrazolo[3,4-b]pyridin-4-yl}phenyl)methoxy]-3-(trifluoromethyl)benzonitrile] was 10 to 100 nM; that for `O=C1CC(c2ccc(COc3ccccc3C(F)(F)F)c(OC(F)(F)F)c2)c2c[nH]nc2N1` (stereo not shown) [Example 108, 4-[3-(trifluoromethoxy)-4-{[2-(trifluoromethyl)phenoxy]methyl}phenyl]-2H,4H,5H,6H,7H-pyrazolo[3,4-b]pyridin-6-one] was 10 to 100 nM.
For `O=C1CC(c2ccc(COc3ccc(C(F)(F)F)cc3C(F)(F)F)c(OC(F)(F)F)c2)c2c[nH]nc2N1` (stereo not shown) [Example 109, 4-(4-{[2,4-bis(trifluoromethyl)phenoxy]methyl}-3-(trifluoromethoxy)phenyl)-2H,4H,5H,6H,7H-pyrazolo[3,4-b]pyridin-6-one], the IC50 was 10 to 100 nM.
With `O=C1CC(c2ccc(COc3ccc(F)cc3C(F)(F)F)c(OC(F)(F)F)c2)c2c[nH]nc2N1` (stereo not shown) [Example 110, 4-(4-{[4-fluoro-2-(trifluoromethyl)phenoxy]methyl}-3-(trifluoromethoxy)phenyl)-2H,4H,5H,6H, 7H-pyrazolo[3,4-b]pyridin-6-one], the IC50 is 100 to 1000 nM.
Same read-out and setting: the value for `COc1cc(C2CC(=O)Nc3n[nH]cc32)ccc1COc1ccc(C)cc1C` (stereo not shown) [Example 111, 4-{4-[(2,4-dimethylphenoxy)methyl]-3-methoxyphenyl}-2H,4H,5H,6H,7H-pyrazolo[3,4-b]pyridin-6-one] was 10 to 100 nM; that for `COc1cc(C2CC(=O)Nc3n[nH]cc32)ccc1COc1ccc(C(F)(F)F)cc1C` (stereo not shown) [Example 112, 4-(3-methoxy-4-{[2-methyl-4-(trifluoromethyl)phenoxy]methyl}phenyl)-2H,4H,5H,6H,7H-pyrazolo[3,4-b]pyridin-6-one] was 10 to 100 nM; that for `COc1cc(C2CC(=O)Nc3n[nH]cc32)ccc1COc1cc(C)cc(C)c1` (stereo not shown) [Example 113, 4-{4-[(3,5-dimethylphenoxy)methyl]-3-methoxyphenyl}-2H,4H,5H,6H,7H-pyrazolo[3,4-b]pyridin-6-one] was 100 to 1000 nM.
On the same count and under the same terms, next, `COc1cc(C2CC(=O)Nc3n[nH]cc32)ccc1COc1cc(C)cc(C(F)(F)F)c1` (stereo not shown) [Example 114, 4-(3-methoxy-4-{[3-methyl-5-(trifluoromethyl)phenoxy]methyl}phenyl)-2H,4H,5H,6H,7H-pyrazolo[3,4-b]pyridin-6-one]: 100 to 1000 nM.
In the case of `COc1cc(C2CC(=O)Nc3n[nH]cc32)ccc1COc1ccc(C(F)F)cc1C(F)F` (stereo not shown) [Example 116, 4-(4-{[2,4-bis(difluoromethyl)phenoxy]methyl}-3-methoxyphenyl)-2H,4H,5H,6H,7H-pyrazolo[3,4-b]pyridin-6-one], the IC50 is 10 to 100 nM.
Same read-out and setting: the value for `COc1cc(C2CC(=O)Nc3n[nH]cc32)ccc1COc1ccc(C(F)(F)F)cc1C(F)F` (stereo not shown) [Example 117, 4-(4-{[2-(difluoromethyl)-4-(trifluoromethyl)phenoxy]methyl}-3-methoxyphenyl)-2H,4H,5H,6H, 7H-pyrazolo[3,4-b]pyridin-6-one] was 10 to 100 nM.
Same read-out and setting: next, `COc1cc(C2CC(=O)Nc3n[nH]cc32)ccc1COc1cc(C(F)F)cc(C(F)(F)F)c1` (stereo not shown) [Example 118, 4-(4-{[3-(difluoromethyl)-5-(trifluoromethyl)phenoxy]methyl}-3-methoxyphenyl)-2H,4H,5H,6H,7H-pyrazolo[3,4-b]pyridin-6-one]: 100 to 1000 nM; `COc1cc(C2CC(=O)Nc3n[nH]cc32)ccc1OCc1ccc(C(=O)O)cc1C(F)(F)F` (stereo not shown) [Example 120, 4-(2-methoxy-4-{6-oxo-2H,4H,5H,6H, 7H-pyrazolo[3,4-b]pyridin-4-yl}phenoxymethyl)-3-(trifluoromethyl)benzoic acid]: 100 to 1000 nM; `COc1cc(C2CC(=O)Nc3n[nH]cc32)ccc1OCc1ccc(C(N)=O)cc1C(F)(F)F` (stereo not shown) [Example 121, 4-(2-methoxy-4-{6-oxo-2H,4H,5H,6H, 7H-pyrazolo[3,4-b]pyridin-4-yl}phenoxymethyl)-3-(trifluoromethyl)benzamide]: 100 to 1000 nM.
Same read-out and setting: the value for `CCCOC(=O)c1ccccc1COc1ccc(C2CC(=O)Nc3n[nH]cc32)cc1OC` (stereo not shown) [Example 125, propyl 2-(2-methoxy-4-{6-oxo-2H,4H,5H,6H,7H-pyrazolo[3,4-b]pyridin-4-yl}phenoxymethyl)benzoate] was 100 to 1000 nM; that for `CCCCOC(=O)c1ccccc1COc1ccc(C2CC(=O)Nc3n[nH]cc32)cc1OC` (stereo not shown) [Example 126, butyl 2-(2-methoxy-4-{6-oxo-2H,4H,5H,6H,7H-pyrazolo[3,4-b]pyridin-4-yl}phenoxymethyl)benzoate] was 100 to 1000 nM; that for `COc1cc(C2CC(=O)Nc3n[nH]cc32)ccc1OCc1ccccc1C(=O)OC(C)C` (stereo not shown) [Example 127, propan-2-yl 2-(2-methoxy-4-{6-oxo-2H,4H,5H,6H,7H-pyrazolo[3,4-b]pyridin-4-yl}phenoxymethyl)benzoate] was 100 to 1000 nM.
Take `CCOC(=O)c1cc(C2CC(=O)Nc3n[nH]cc32)ccc1OCc1ccccc1C(F)(F)F` (stereo not shown) [Example 128, ethyl 5-{6-oxo-2H,4H,5H,6H,7H-pyrazolo[3,4-b]pyridin-4-yl}-2-{[2-(trifluoromethyl)phenyl]methoxy}benzoate]: the IC50 is 10 to 100 nM.
As to `NC(=O)c1cc(C2CC(=O)Nc3n[nH]cc32)ccc1OCc1ccccc1C(F)(F)F` (stereo not shown) [Example 130, 5-{6-oxo-2H,4H,5H,6H, 7H-pyrazolo[3,4-b]pyridin-4-yl}-2-{[2-(trifluoromethyl)phenyl]methoxy}benzamide], the IC50 is 100 to 1000 nM.
On the same count and under the same terms, the value for `O=C1CC(c2ccc(OCc3ccccc3C(F)(F)F)c(C(=O)Nc3nnc[nH]3)c2)c2c[nH]nc2N1` (stereo not shown) [Example 131, 5-{6-oxo-2H, 4H,5H, 6H, 7H-pyrazolo[3,4-b]pyridin-4-yl}-N-(4H-1,2,4-triazol-3-yl)-2-{[2-(trifluoromethyl)phenyl]methoxy}benzamide] was 100 to 1000 nM; that for `O=C1CC(c2ccc(OCc3ccccc3C(F)(F)F)c(C(=O)OCCO)c2)c2c[nH]nc2N1` (stereo not shown) [Example 132, 2-hydroxyethyl 5-{6-oxo-2H,4H,5H,6H, 7H-pyrazolo[3,4-b]pyridin-4-yl}-2-{[2-(trifluoromethyl)phenyl]methoxy}benzoate] was 100 to 1000 nM; that for `COc1cc(C2CC(=O)Nc3c[nH]nc32)ccc1OCc1ccc(N)cc1C(F)(F)F` (stereo not shown) [Example 137, 7-(4-{[4-amino-2-(trifluoromethyl)phenyl]methoxy}-3-methoxyphenyl)-2H,4H,5H,6H, 7H-pyrazolo[4,3-b]pyridin-5-one] was 100 to 1000 nM.
